From patent US20240309043A1, “THERAPEUTICALLY ACTIVE STEROIDAL DERIVATIVES” (Organon R&D Finland Ltd., priority 2017, published 2024)

What was measured:
Format in all cases: biochemical
[1] = biological target: T1, recombinant human 17β-HSD1 (Homo sapiens, UniProt P14061); test: Inhibition of recombinant human 17β-HSD1; conditions: inhibitor 100 nM; 30 nM estrone, 1 mM NADPH, 30 min RT
T1 construct: made in house; host or cells: Sd9 (Sf9) insect cells, baculovirus (Bac to Bac Expression System)
T1 sequence (P14061 1-328): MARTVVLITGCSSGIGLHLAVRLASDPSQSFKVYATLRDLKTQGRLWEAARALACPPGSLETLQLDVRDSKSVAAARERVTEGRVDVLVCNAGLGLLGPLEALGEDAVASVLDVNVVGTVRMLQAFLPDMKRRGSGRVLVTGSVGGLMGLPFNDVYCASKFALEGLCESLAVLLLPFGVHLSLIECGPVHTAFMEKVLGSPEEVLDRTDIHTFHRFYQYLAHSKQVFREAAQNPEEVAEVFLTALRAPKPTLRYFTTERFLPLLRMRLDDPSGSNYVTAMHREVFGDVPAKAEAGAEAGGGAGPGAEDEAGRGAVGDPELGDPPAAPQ
In short: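 Microsomes from Sf9 cells expressing human 17β-HSD1 (1 μg/ml) were incubated for 30 min at RT in 20 mM KH2PO4 pH 7.4 with 30 nM ³H-estrone, 1 mM NADPH and inhibitor at 1 μM or 0.1 μM (1% DMSO). Estrone-to-estradiol conversion was measured by radio-HPLC after TCA stop, and % inhibition was taken as 100 − % conversion.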

[2] = biological target: T2, recombinant human 17β-HSD2 (Homo sapiens, UniProt P37059); test: Inhibition of recombinant human 17β-HSD2; conditions: inhibitor 1 μM; 50 nM estradiol, 1 mM NADH, 30 min RT
T2 construct: made in house; host or cells: Sd9 (Sf9) insect cells, baculovirus (Bac to Bac Expression System)
T2 sequence (P37059 1-387): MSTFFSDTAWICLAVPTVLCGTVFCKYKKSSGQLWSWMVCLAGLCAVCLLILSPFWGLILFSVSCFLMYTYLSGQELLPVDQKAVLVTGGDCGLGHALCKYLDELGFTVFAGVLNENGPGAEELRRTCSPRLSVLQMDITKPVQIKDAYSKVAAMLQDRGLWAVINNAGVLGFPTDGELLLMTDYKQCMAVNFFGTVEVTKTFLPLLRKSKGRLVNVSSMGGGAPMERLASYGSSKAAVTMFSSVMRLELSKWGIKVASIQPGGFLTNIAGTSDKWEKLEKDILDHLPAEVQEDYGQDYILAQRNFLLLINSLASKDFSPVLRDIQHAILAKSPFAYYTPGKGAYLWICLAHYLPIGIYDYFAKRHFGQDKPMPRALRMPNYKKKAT
In short: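 Sf9 baculovirus-expressed enzyme membrane extract (4 μg/ml) incubated 30 min at RT in 20 mM KH2PO4 pH 8.5 with 50 nM estradiol (³H-tracer) and 1 mM NADH, inhibitor at 1 μM or 0.1 μM, 1% DMSO. TCA-stopped; estradiol-to-estrone conversion by radio-HPLC, % inhibition = 100 − % conversion.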

[3] = system: HSD1 enzyme that is expressed in rabbit placenta tissue; test: Inhibition of E1 to E2 conversion in rabbit placenta tissue homogenate; conditions: inhibitor 100 nM, 30 nM estrone, 30 min

SMILES | inhibition at 0.1 µM [1] [%] | inhibition at 1 µM [2] [%] | Rabbit placenta inhibition % @100 nM [3] [%]
Cc1ccc(NC(=O)CC[C@@H]2C/C(=N\O)[C@@]3(C)CCC4c5ccc(Cl)cc5CCC4C23)nn1 (stereo partly drawn) [Compound 76, 3-((13S,15R,E)-3-chloro-17-(hydroxyimino)-13-methyl-7,8,9,11,12,13,14,15,16,17-decahydro-6H-cyclopenta[a]phenanthren-15-yl)-N-(6-methylpyridazin-3-yl)propanamide] | 33 | 4 | 56
C[C@]12CCC3c4ccc(Cl)cc4CCC3C1[C@H](CCC(=O)Nc1ccc(N3CCOCC3)cn1)C/C2=N\O (stereo partly drawn) [Compound 78, 3-((13S,15R,E)-3-chloro-17-(hydroxyimino)-13-methyl-7,8,9,11,12,13,14,15,16,17-decahydro-6H-cyclopenta[a]phenanthren-15-yl)-N-(5-morpholinopyridin-2-yl)propanamide] | 76 | 1 | 37
CN(C(=O)CC[C@@H]1C/C(=N\O)[C@@]2(C)CCC3c4ccccc4CCC3C12)C1CCOCC1 (stereo partly drawn) [Compound 80, 3-((13S,15R,E)-17-(hydroxyimino)-13-methyl-7,8,9,11,12,13,14,15,16,17-decahydro-6H-cyclopenta[a]phenanthren-15-yl)-N-methyl-N-(tetrahydro-2H-pyran-4-yl)propanamide] | 32 | 4 | 3
C[C@]12CCC3c4ccccc4CCC3C1[C@H](CCC(=O)Nc1cccnn1)C/C2=N\O (stereo partly drawn) [Compound 82] | 17 | 7 | 18
CN1CCN(c2ccc(NC(=O)CC[C@@H]3C/C(=N\O)[C@@]4(C)CCC5c6ccccc6CCC5C34)nc2)CC1 (stereo partly drawn) [Compound 86, 3-((13S,15R,E)-17-(hydroxyimino)-13-methyl-7,8,9,11,12,13,14,15,16,17-decahydro-6H-cyclopenta[a]phenanthren-15-yl)-N-(5-(4-methylpiperazin-1-yl)pyridin-2-yl)propanamide] | 61 | 6 | 51
Cc1ccnc(NC(=O)CC[C@@H]2C/C(=N\O)[C@@]3(C)CCC4c5ccccc5CCC4C23)c1 (stereo partly drawn) [Compound 88, 3-((13S,15R,E)-17-(hydroxyimino)-13-methyl-7,8,9,11,12,13,14,15,16,17-decahydro-6H-cyclopenta[a]phenanthren-15-yl)-N-(4-methylpyridin-2-yl)propanamide] | 65 | -2 | 10
CN(C)C(=O)c1ccc(NC(=O)CC[C@@H]2C/C(=N\O)[C@@]3(C)CCC4c5ccccc5CCC4C23)nc1 (stereo partly drawn) [Compound 92, 6-(3-((13S,15R,E)-17-(hydroxyimino)-13-methyl-7,8,9,11,12,13,14,15,16,17-decahydro-6H-cyclopenta[a]phenanthren-15-yl)propanamido)-N,N-dimethylnicotinamide] | 37 | 9 | 15
C[C@]12CCC3c4ccccc4CCC3C1[C@H](CCC(=O)Nc1cc3c([nH]c1=O)CCCC3)C/C2=N\O (stereo partly drawn) [Compound 94, 3-((13S,15R,E)-17-(hydroxyimino)-13-methyl-7,8,9,11,12,13,14,15,16,17-decahydro-6H-cyclopenta[a]phenanthren-15-yl)-N-(2-oxo-1,2,5,6,7,8-hexahydroquinolin-3-yl)propanamide] | 63 | 0 | 8
C[C@]12CCC3c4ccccc4CCC3C1[C@H](CCC(=O)Nc1ccc(C#N)cn1)C/C2=N\O (stereo partly drawn) [Compound 100, N-(5-cyanopyridin-2-yl)-3-((13S,15R,E)-17-(hydroxyimino)-13-methyl-7,8,9,11,12,13,14,15,16,17-decahydro-6H-cyclopenta[a]phenanthren-15-yl)propanamide] | 51 | -2 | 12
C[C@]12CCC3c4ccccc4CCC3C1[C@H](CCC(=O)Nc1ncccc1O)C/C2=N\O (stereo partly drawn) [Compound 102, 3-((13S,15R,E)-17-(hydroxyimino)-13-methyl-7,8,9,11,12,13,14,15,16,17-decahydro-6H-cyclopenta[a]phenanthren-15-yl)-N-(3-hydroxypyridin-2-yl)propanamide] | 57 | 20 | 1
C[C@]12CCC3c4ccccc4CCC3C1[C@H](CCC(=O)Nc1ccccn1)C/C2=N\O (stereo partly drawn) [Compound 104, 3-((13S,15R,E)-17-(hydroxyimino)-13-methyl-7,8,9,11,12,13,14,15,16,17-decahydro-6H-cyclopenta[a]phenanthren-15-yl)-N-(pyridin-2-yl)propanamide] | 64 | -13 | 9
CN1CCN(c2ccc(NC(=O)CC[C@@H]3C/C(=N\O)[C@@]4(C)CCC5c6cccc(F)c6CCC5C34)nc2)CC1 (stereo partly drawn) [Compound 116, 3-((13S,15R,E)-4-fluoro-17-(hydroxyimino)-13-methyl-7,8,9,11,12,13,14,15,16,17-decahydro-6H-cyclopenta[a]phenanthren-15-yl)-N-(5-(4-methylpiperazin-1-yl)pyridin-2-yl)propanamide] | 85 | 26 | 76
CNC(=O)CC[C@@H]1C/C(=N\O)[C@@]2(C)CCC3c4cccc(F)c4CCC3C12 (stereo partly drawn) [Compound 118, 3-((13S,15R,E)-4-fluoro-17-(hydroxyimino)-13-methyl-7,8,9,11,12,13,14,15,16,17-decahydro-6H-cyclopenta[a]phenanthren-15-yl)-N-methylpropanamide] | 43 | 2 | −1
CN(C)C(=O)CC[C@@H]1C/C(=N\O)[C@@]2(C)CCC3c4cccc(F)c4CCC3C12 (stereo partly drawn) [Compound 120, 3-((13S,15R,E)-4-fluoro-17-(hydroxyimino)-13-methyl-7,8,9,11,12,13,14,15,16,17-decahydro-6H-cyclopenta[a]phenanthren-15-yl)-N,N-dimethylpropanamide] | 57 | 2 | 9
C[C@]12CCC3c4cccc(F)c4CCC3C1[C@H](CCC(=O)NC1CCOCC1)C/C2=N\O (stereo partly drawn) [Compound 122, 3-((13S,15R,E)-4-fluoro-17-(hydroxyimino)-13-methyl-7,8,9,11,12,13,14,15,16,17-decahydro-6H-cyclopenta[a]phenanthren-15-yl)-N-(tetrahydro-2H-pyran-4-yl)propanamide] | 67 | 6 | 4
C[C@]12CCC3c4cccc(F)c4CCC3C1[C@H](CCC(=O)NC1CCCCC1)C/C2=N\O (stereo partly drawn) [Compound 124, N-Cyclohexyl-3-((13S,15R,E)-4-fluoro-17-(hydroxyimino)-13-methyl-7,8,9,11,12,13,14,15,16,17-decahydro-6H-cyclopenta[a]phenanthren-15-yl)propanamide] | 86 | 4 | 4
C[C@]12CCC3c4cccc(F)c4CCC3C1[C@H](CCC(=O)Nc1cnccn1)C/C2=N\O (stereo partly drawn) [Compound 126, 3-((13S,15R,E)-4-fluoro-17-(hydroxyimino)-13-methyl-7,8,9,11,12,13,14,15,16,17-decahydro-6H-cyclopenta[a]phenanthren-15-yl)-N-(pyrazin-2-yl)propanamide] | 53 | 3 | 26
C[C@]12CCC3c4cccc(F)c4CCC3C1[C@H](CCC(=O)N1CCC3(CCOCC3)C1)C/C2=N\O (stereo partly drawn) [Compound 128, 3-((13S,15R,E)-4-fluoro-17-(hydroxyimino)-13-methyl-7,8,9,11,12,13,14,15,16,17-decahydro-6H-cyclopenta[a]phenanthren-15-yl)-1-(8-oxa-2-azaspiro[4.5]decan-2-yl)propan-1-one] | 59 | 6 | 2
